Values quoted from earlier work as cited in US20240280563A1, “SYSTEMS AND METHODS FOR ION CHANNEL KINETICS ANALYSIS IN CLUSTERS OF ION CHANNELS” (Ohio State Innovation Foundation, priority 2023, published 2024).

System: NaVs
Settings: disruption of cooperativity with difopein; this and previous studies (Clatot et al. 2017; Zheng and Deschênes 2023)

difopein
effect on whole cell sodium current density: does not change significantly
